How the values were obtained:
Assay in all cases: In vitro inhibition, CellTiter-Glo (CTG) assay
Type in all cases: cell-based
MDA-MB-231 = tested on: MDA-MB-231
Experimental: (§1) Cells were grown in RPMI-1640 supplemented with L-Glutamine and 10% FBS of the following cell lines:
(§2) CCRF-CEM; HL-60; KG-1; CFPAC-1; MiaPACA-2; BxPC-3; HepG2; MDA-MB-231; HCT-116; A498; and NCI-H69
(§3) 18, 96 well plates of each cell line were seeded with the optimized number of cells per well in a total volume of 50 μper well. The plates were left overnight. Plate wells were seeded with 100 pt media for media control. The following day, cells were exposed to test compounds as described below. At the same time as drug exposure, a CTG assay was conducted on the 18th plate for the 0 hr count.
(§4) The compounds were added to cells and medium already on the plate to give desired final concentrations. 50 μL media were added to cell control wells, and 50 μL of mix added to vehicle control wells. 10 μM Doxorubicin was added to appropriate wells as control. Cells exposed to test compound were incubated at 37° C. for 72 hr followed by a CTG assay.
(§5) At the end of the 72 hr exposure period, plates were removed for a CellTiter-Glo (CTG) assay from a 37° C., 5% CO2 incubator and placed on the bench at room temperature for 30 mins. 100 μL of CellTiter-Glo reagent was added and mixed for 2 mins, followed by a further 10 min incubation at room temperature. Luminescence was recorded using Synergy 4.0.

MiaPACA-2 = tested on: MiaPACA-2
Experimental: as §1, §2, §3, §4, §5

BxPC-3 = tested on: BxPC-3
Experimental: as §1, §2, §3, §4, §5

HCT-116 = tested on: HCT-116
Experimental: as §1, §2, §3, §4, §5

CFPAC-1 = tested on: CFPAC-1
Experimental: as §1, §2, §3, §4, §5

HepG2 = tested on: HepG2
Experimental: as §1, §2, §3, §4, §5

A498 = tested on: A498
Experimental: as §1, §2, §3, §4, §5

NCI-H69 = tested on: NCI-H69
Experimental: as §1, §2, §3, §4, §5

[1] = Homo sapiens, MDA-MB-231, 72 hr exposure
[2] = Homo sapiens, MIA PaCa-2, 72 h, 72 hr exposure
[3] = Homo sapiens, BXPC-3, 72 h, 72 hr exposure
[4] = Homo sapiens, HCT-116, 72 h, 72 hr exposure
[5] = Homo sapiens, CFPAC-1, 72 h, 72 hr exposure
[6] = Homo sapiens, HepG2, 72 h, 72 hr exposure
[7] = Homo sapiens, A498, 72 h, 72 hr exposure
[8] = Homo sapiens, NCI-H69, 72 h, 72 hr exposure
[9] = Homo sapiens, NCI-H69, 72 hr exposure

| Compound | IC50 (MDA-MB-231; [1]) [µM] | IC50 (MiaPACA-2; [2]) [µM] | IC50 (BxPC-3; [3]) [µM] | IC50 (HCT-116; [4]) [µM] | IC50 (CFPAC-1; [5]) [µM] | IC50 (HepG2; [6]) [µM] | IC50 (A498; [7]) [µM] | IC50 (NCI-H69; [8]) [µM] | IC50 (MDA-MB-231; 72 hr exposure) [µM] | IC50 (HCT-116; 72 hr exposure) [µM] | IC50 (A498; 72 hr exposure) [µM] | IC50 (NCI-H69; 72 hr exposure) [µM] | IC50 (MiaPACA-2; 72 hr exposure) [µM] | IC50 (BxPC-3; 72 hr exposure) [µM] | IC50 (CFPAC-1; 72 hr exposure) [µM] | IC50 (HepG2; 72 hr exposure) [µM] | also measured |
| --- | --- | --- | --- | --- | --- | --- | --- | --- | --- | --- | --- | --- | --- | --- | --- | --- | --- |
| CC(C)(CO)C(=O)SCCOP(=O)(O)OC[C@H]1O[C@@H](n2ccc(N)nc2=O)C(F)(F)[C@@H]1O [Compound 118] | 1 to 10 | < 1 | < 1 | < 1 | < 1 | < 1 | < 1 | < 1 | – | – | – | – | – | – | – | – | – |
| CCCC(CCC)C(=O)Nc1ccn([C@@H]2O[C@@H]3COP(=O)(N[C@H](C)C(=O)OC(C)C)O[C@H]3C2(F)F)c(=O)n1 (single isomer, unassigned) [116 (diastereomer 1)] | 10 to 100 | 10 to 100 | 10 to 100 | 10 to 100 | 10 to 100 | 10 to 100 | 10 to 100 | 10 to 100 | – | – | – | – | – | – | – | – | – |
| Nc1ccn([C@@H]2O[C@@H]3COP(=O)(O)O[C@H]3C2(F)F)c(=O)n1 [Compound 107, 1-[(4aR,6R,7aR)-7,7-difluoro-2-hydroxy-2-oxo-4,4a,6,7a-tetrahydrofuro[3,2-d][1,3,2]dioxaphosphinin-6-yl]-4-amino-pyrimidin-2-one] | 10 to 100 | < 1 | < 1 | 1 to 10 | < 1 | < 1 | 10 to 100 | 1 to 10 | – | – | – | – | – | – | – | – | – |
| CCOC(=O)[C@H](CC(C)C)NP(=O)(O)OC[C@H]1O[C@@H](n2ccc(N)nc2=O)C(F)(F)[C@@H]1O [Compound 115, [(2R,3R,5R)-5-(4-amino-2-oxo-pyrimidin-1-yl)-4,4-difluoro-3-hydroxy-tetrahydrofuran-2-yl]methoxy-N-[(1S)-1-ethoxycarbonyl-3-methyl-butyl]phosphonamidic acid] | 10 to 100 | < 1 | 1 to 10 | < 1 | < 1 | < 1 | 10 to 100 | 1 to 10 | – | – | – | – | – | – | – | – | – |
| CC(C)OC(=O)[C@@H](C)NP1(=O)OC[C@H]2O[C@@H](n3ccc(N)nc3=O)C(F)(F)[C@@H]2O1 (single isomer, unassigned) [101 (diastereomer 2)] | – | 1 to 10 | 10 to 100 | – | 1 to 10 | 1 to 10 | – | – | 10 to 100 | 10 to 100 | 10 to 100 | 10 to 100 | – | – | – | – | – |
| Nc1ccn([C@@H]2O[C@H](COP(=O)(OCc3ccc([N+](=O)[O-])o3)OCc3ccc([N+](=O)[O-])o3)[C@@H](O)C2(F)F)c(=O)n1 [Compound 114, [(2R,3R,5R)-5-(4-amino-2-oxo-pyrimidin-1-yl)-4,4-difluoro-3-hydroxy-tetrahydrofuran-2-yl]methyl bis[(5-nitro-2-furyl)methyl] phosphate] | 10 to 100 | – | – | – | – | – | – | – | – | – | – | – | – | – | – | – | IC50 (MiaPACA-2; Homo sapiens, MIA PaCa-2, 72 hr exposure): < 1 µM; IC50 (BxPC-3; Homo sapiens, BXPC-3, 72 hr exposure): < 1 µM; IC50 (HCT-116; Homo sapiens, HCT-116, 72 hr exposure): 1 to 10 µM; IC50 (CFPAC-1; Homo sapiens, CFPAC-1, 72 hr exposure): < 1 µM; IC50 (HepG2; Homo sapiens, HepG2, 72 hr exposure): < 1 µM; IC50 (A498; Homo sapiens, A498, 72 hr exposure): < 1 µM; IC50 (NCI-H69; [9]): 10 to 100 µM |
| COC(=O)[C@H](CCCCNP1(=O)OC[C@H]2O[C@@H](n3ccc(N)nc3=O)C(F)(F)[C@@H]2O1)NC(=O)OC(C)(C)C (single isomer, unassigned) [106 (diastereomer 2)] | – | – | – | – | – | – | – | – | 10 to 100 | 1 to 10 | 10 to 100 | 10 to 100 | 1 to 10 | 1 to 10 | 1 to 10 | < 1 | – |
| CC(C)(C)SSCCOP(=O)(NCc1ccccc1)OC[C@H]1O[C@@H](n2ccc(N)nc2=O)C(F)(F)[C@@H]1O (single isomer, unassigned) [111 (diastereomer 2)] | – | – | – | – | – | – | – | – | 10 to 100 | < 1 | 10 to 100 | 10 to 100 | < 1 | 1 to 10 | < 1 | < 1 | – |
| CC(C)(C)SSCCOP(=O)(NCc1ccccc1)OC[C@H]1O[C@@H](n2ccc(N)nc2=O)C(F)(F)[C@@H]1O (single isomer, unassigned) [111 (diastereomer 1)] | 10 to 100 | – | – | – | – | – | 10 to 100 | 10 to 100 | – | 10 to 100 | – | – | 10 to 100 | 10 to 100 | 10 to 100 | 10 to 100 | – |
| COC(=O)[C@H](CCCCNP1(=O)OC[C@H]2O[C@@H](n3ccc(N)nc3=O)C(F)(F)[C@@H]2O1)NC(=O)OC(C)(C)C (single isomer, unassigned) [106 (diastereomer 1)] | 10 to 100 | 1 to 10 | – | – | 1 to 10 | < 1 | 10 to 100 | 10 to 100 | – | 10 to 100 | – | – | – | 10 to 100 | – | – | – |
| CC(C)C(=O)OC[C@@H](C)NP1(=O)OC[C@H]2O[C@@H](n3ccc(N)nc3=O)C(F)(F)[C@@H]2O1 (single isomer, unassigned) [105 (diastereomer 1)] | 10 to 100 | < 1 | < 1 | – | < 1 | < 1 | – | – | – | < 1 | 10 to 100 | 1 to 10 | – | – | – | – | – |
| COC(=O)[C@H](CC(C)C)NP(=O)(N[C@@H](CC(C)C)C(=O)OC)OC[C@H]1O[C@@H](n2ccc(N)nc2=O)C(F)(F)[C@@H]1O [Compound 109, Methyl (2S)-2-[[[(2R,3R,5R)-5-(4-amino-2-oxo-pyrimidin-1-yl)-4,4-difluoro-3-hydroxy-tetrahydrofuran-2-yl]methoxy-[[(1S)-1-methoxycarbonyl-3-methyl-butyl]amino]phosphoryl]amino]-4-methyl-pentanoate] | 10 to 100 | 10 to 100 | 10 to 100 | 10 to 100 | 1 to 10 | 1 to 10 | 10 to 100 | 10 to 100 | – | – | – | – | – | – | – | – | – |
| CC(C)(C)C(=O)SCCOP1(=O)OC[C@H]2O[C@@H](n3ccc(N)nc3=O)C(F)(F)[C@@H]2O1 (single isomer, unassigned) [104 (diastereomer 1)] | 1 to 10 | < 1 | < 1 | 1 to 10 | < 1 | < 1 | – | 1 to 10 | – | – | 10 to 100 | – | – | – | – | – | – |
| CC(C)(C)C(=O)SCCOP1(=O)OC[C@H]2O[C@@H](n3ccc(N)nc3=O)C(F)(F)[C@@H]2O1 (single isomer, unassigned) [104 (diastereomer 2)] | – | – | – | – | – | – | – | – | 1 to 10 | 1 to 10 | < 1 | 1 to 10 | < 1 | < 1 | < 1 | < 1 | – |
| CC(C)OP(=O)(OC[C@H]1O[C@@H](n2ccc(N)nc2=O)C(F)(F)[C@@H]1O)OC(C)C [Compound 119] | 10 to 100 | 10 to 100 | 10 to 100 | 10 to 100 | 10 to 100 | 10 to 100 | 10 to 100 | 10 to 100 | – | – | – | – | – | – | – | – | – |
| CC(C)OC(=O)[C@@H](C)NP1(=O)OC[C@H]2O[C@@H](n3ccc(N)nc3=O)C(F)(F)[C@@H]2O1 (single isomer, unassigned) [101 (diastereomer 1)] | 10 to 100 | – | – | – | – | – | – | – | – | 1 to 10 | 1 to 10 | – | < 1 | 10 to 100 | < 1 | < 1 | IC50 (NCI-H69; [9]): 10 to 100 µM |
| CCCC(CCC)C(=O)Nc1ccn([C@@H]2O[C@@H]3COP(=O)(N[C@H](C)C(=O)OC(C)C)O[C@H]3C2(F)F)c(=O)n1 (single isomer, unassigned) [116 (diastereomer 2)] | – | – | – | – | – | – | – | – | 10 to 100 | 10 to 100 | 10 to 100 | 10 to 100 | 10 to 100 | 10 to 100 | 10 to 100 | 10 to 100 | – |
| CC(C)C(=O)OC[C@@H](C)NP1(=O)OC[C@H]2O[C@@H](n3ccc(N)nc3=O)C(F)(F)[C@@H]2O1 (single isomer, unassigned) [105 (diastereomer 2)] | – | – | – | – | – | – | – | – | 10 to 100 | 10 to 100 | 1 to 10 | 10 to 100 | 1 to 10 | 1 to 10 | 1 to 10 | < 1 | – |

From patent publication US10766917B2, “Nucleotides for the treatment of cancer” (IDENIX PHARMACEUTICALS LLC, priority 2015, dated 2020)
